Test [1] has as its system 12_J03-18. Kind of test: fluorogenic glycosidase kinetics. Format: biochemical, uncultured bacterium (Castor canadensis fecal metagenome). An excerpt:
fluorogenic glycosidase kinetics on 12_J03-18

In test [2] the test system is 12_H03-13. Kind of test: fluorogenic glycosidase kinetics. The test is classed as biochemical, uncultured bacterium (Castor canadensis fecal metagenome). The note with it: GH43 domain site. An excerpt: fluorogenic glycosidase kinetics on 12_H03-13

A word on the Km: it is the concentration of substrate that gives half-maximal velocity. Regarding `Cc1cc(=O)oc2cc(O[C@@H]3OC[C@@H](O)[C@H](O)[C@H]3O)c(Cl)cc12` [6-chloro-4-methylumbelliferyl β-D-xyloside], the Km came out at 480 ± 60 µM in test [1], 190 ± 30 µM in test [2] and 140 ± 10 µM in test [2] (GH8 catalytic acid residue mutated).

(Values after paper PMC6193987, “Metagenomics reveals functional synergy and novel polysaccharide utilization loci in the Castor canadensis fecal microbiome” (The ISME Journal, 2018).)
